According to US20260166159A1, “KRAS G12D DEGRADATION AGENT, AND PREPARATION METHOD AND USE THEREFOR” (LEADINGTAC PHARMACEUTICAL (SHAOXING) CO., LTD., priority 2022, published 2026):

How the values were obtained:
[1] = test system: KRAS G12D mutant human gastric cancer cell AGS; experiment: 3D cell proliferation inhibition assay, AGS; type: cell-based; details: 168 h, 7 days, CTG
Method in brief: (§1)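 CellTiter-Glo luminescence, read after 60 min at room temperature, measured growth of 3D cultures (5×10^2 cells/well) exposed for 7 days to compounds at final concentrations of 10000–0.026 nM in 0.2% DMSO. Percent inhibition, scaled between DMSO-treated cells and medium alone, was fitted against log concentration for IC50.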

[2] = test system: KRAS G12D mutant human lung cancer cell A427; experiment: 3D cell proliferation inhibition assay, A427; type: cell-based; details: A-427, 168 h, A427, 7 days, CTG
Method in brief: as §1

[3] = target: T1, Human KRAS G12D 6His-tagged (Homo sapiens, UniProt P01116, G12D); experiment: KRAS-G12D/GTP binding assay (HTRF)
T1 construct: purchased PerkinElmer
T1 sequence (P01116 1-188 isoform P01116-2 G12D): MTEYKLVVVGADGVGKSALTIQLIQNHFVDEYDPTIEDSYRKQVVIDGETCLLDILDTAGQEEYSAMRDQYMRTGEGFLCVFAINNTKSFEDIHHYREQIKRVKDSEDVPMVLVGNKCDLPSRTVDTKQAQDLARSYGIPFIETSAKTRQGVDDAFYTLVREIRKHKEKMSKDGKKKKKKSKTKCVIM
Method in brief: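 HTRF kit format: 6His-tagged KRAS G12D incubated with compound (final 0.02-5000 nM, 0.5% DMSO), anti-6His Eu cryptate antibody and GTP Red reagent for 1 h at 25° C. 665/620 nm ratio versus control gave inhibition rates; IC50 by nonlinear fit.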

phosphorylated ERK = experiment: KRAS G12D-mediated phosphorylated ERK inhibition assay (AlphaLISA), A427; type: cell-based; details: Homo sapiens, A-427; A427 cells; class symbols; read-out: pERK (A427) IC50
Method: The relative amounts of phosphorylated ERK and total ERK in the samples were separately determined according to the test methods provided in the instructions of the AlphaLISA SureFire Ultra p-ERK 1/2 (Thr202/Tyr204) kit (PerkinElmer) and the AlphaLISA SureFire Ultra TotalERK 1/2 kit (PerkinElmer).
The experimental procedures for the assay of the phosphorylated ERK and total ERK were as follows: 10 μL of each sample was added to a 384-well plate (Greiner), and 5 μL of the prepared Acceptor Beads (PerkinElmer) mixed solution (containing 50× Acceptor Beads 615, Activation Buffer, and equal volumes of Reaction Buffer 1 and Reaction Buffer 2) was added to each well; and the plate was incubated at room temperature for 2 h. Then 5 μL of 1× Donor Beads (PerkinElmer) diluted with Dilution Buffer was added to each well, and the plate was incubated at room temperature overnight. After the incubation was completed, AlphaLISA signal values for the phosphorylated ERK and total ERK were separately measured on an EnVision microplate reader (PerkinElmer) in the AlphaScreen standard mode. The following formula was adopted: phosphorylated ERK correction value=phosphorylated ERK AlphaLISA signal value/total ERK AlphaLISA signal value. The relative ratio of the phosphorylated ERK for each sample was calculated. The percentage inhibition rates of the compounds on the phosphorylated ERK at each concentration were calculated by comparing the relative value of the phosphorylated ERK with that of the DMSO control well. Then non-linear curve fittings for logarithmic concentration-inhibition rate were performed by the GraphPad Prism 8 analysis software, and the IC50 values of the compounds on the inhibition of the phosphorylated ERK were obtained (Table 2).

Structure (SMILES): C#Cc1c(F)ccc2cc(O)cc(-c3ncc4c(N5CC6CCC(C5)N6)nc(OCC5(CN6CCN(CCC7CCN(C(=O)c8ccc(Cl)c(N9CCC(=O)NC9=O)c8)CC7)CC6)CC5)nc4c3F)c12 [Example 3, 1-(5-(4-(2-(4-((1-(((4-(3,8-diazabicyclo[3.2.1]octan-3-yl)-7-(8-ethynyl-7-fluoro-3-hydroxynaphthalen-1-yl)-8-fluoropyrido[4,3-d]pyrimidin-2-yl)oxy)methyl)cyclopropyl)methyl)piperazin-1-yl)ethyl)piperidine-1-carbonyl)-2-chlorophenyl)dihydropyrimidine-2,4(1H,3H)-dione]
- IC50 ([1]; class symbols): ≤ 50 nM
- IC50 ([2]; class symbols): 1000 to 10000 nM
- IC50 ([3]; class symbols): ≤ 50 nM
- IC50 (phosphorylated ERK): 50 to 100 nM

Structure (SMILES): C#Cc1c(F)ccc2cc(O)cc(-c3ncc4c(N5CC6CCC(C5)N6)nc(OCC5(CN6CCN(CCCC7CCN(C(=O)c8ccc(Cl)c(N9CCC(=O)NC9=O)c8)CC7)CC6)CC5)nc4c3F)c12 [Example 4, 1-(5-(4-(3-(4-((1-(((4-(3,8-diazabicyclo[3.2.1]octan-3-yl)-7-(8-ethynyl-7-fluoro-3-hydroxynaphthalen-1-yl)-8-fluoropyrido[4,3-d]pyrimidin-2-yl)oxy)methyl)cyclopropyl)methyl)piperazin-1-yl)propyl)piperidine-1-carbonyl)-2-chlorophenyl)dihydropyrimidine-2,4(1H,3H)-dione]
- IC50 ([1]; class symbols): 50 to 100 nM
- IC50 ([2]; class symbols): 100 to 500 nM
- IC50 ([3]; class symbols): ≤ 50 nM
- IC50 (phosphorylated ERK): ≤ 50 nM

Structure (SMILES): C#Cc1c(F)ccc2cc(O)cc(-c3ncc4c(N5CC6CCC(C5)N6)nc(OCC5(CN6CCN(CCCCC7CCN(C(=O)c8ccc(Cl)c(N9CCC(=O)NC9=O)c8)CC7)CC6)CC5)nc4c3F)c12 [Example 5, 1-(5-(4-(4-(4-((1-(((4-(3,8-diazabicyclo[3.2.1]octan-3-yl)-7-(8-ethynyl-7-fluoro-3-hydroxynaphthalen-1-yl)-8-fluoropyrido[4,3-d]pyrimidin-2-yl)oxy)methyl)cyclopropyl)methyl)piperazin-1-yl)butyl)piperidine-1-carbonyl)-2-chlorophenyl)dihydropyrimidine-2,4(1H,3H)-dione]
- IC50 ([1]; class symbols): ≤ 50 nM
- IC50 ([2]; class symbols): 50 to 100 nM
- IC50 ([3]; class symbols): ≤ 50 nM
- IC50 (phosphorylated ERK): ≤ 50 nM

Structure (SMILES): C#Cc1c(F)ccc2cc(O)cc(-c3ncc4c(N5CC6CCC(C5)N6)nc(OCC5(CN6CCN(CC7CCC8(CC7)CCN(C(=O)c7ccc(Cl)c(N9CCC(=O)NC9=O)c7)CC8)CC6)CC5)nc4c3F)c12 [Example 6, 1-(5-(9-((4-((1-(((4-(3,8-diazabicyclo[3.2.1]octan-3-yl)-7-(8-ethynyl-7-fluoro-3-hydroxynaphthalen-1-yl)-8-fluoropyrido[4,3-d]pyrimidin-2-yl)oxy)methyl)cyclopropyl)methyl)piperazin-1-yl)methyl)-3-azaspiro[5.5]undecane-3-carbonyl)-2-chlorophenyl)dihydropyrimidine-2,4(1H,3H)-dione]
- IC50 ([1]; class symbols): ≤ 50 nM
- IC50 ([2]; class symbols): ≤ 50 nM
- IC50 ([3]; class symbols): ≤ 50 nM
- IC50 (phosphorylated ERK): ≤ 50 nM

Structure (SMILES): C#Cc1c(F)ccc2cc(O)cc(-c3ncc4c(N5CC6CCC(C5)N6)nc(OCC5(CN6CCN(CCCC7CCC8(CC7)CCN(C(=O)c7ccc(Cl)c(N9CCC(=O)NC9=O)c7)CC8)CC6)CC5)nc4c3F)c12 [Example 7, 1-(5-(9-(3-(4-((1-(((4-(3,8-diazabicyclo[3.2.1]octan-3-yl)-7-(8-ethynyl-7-fluoro-3-hydroxynaphthalen-1-yl)-8-fluoropyrido[4,3-d]pyrimidin-2-yl)oxy)methyl)cyclopropyl)methyl)piperazin-1-yl)propyl)-3-azaspiro[5.5]undecane-3-carbonyl)-2-chlorophenyl)dihydropyrimidine-2,4(1H,3H)-dione]
- IC50 ([1]; class symbols): ≤ 50 nM
- IC50 ([2]; class symbols): ≤ 50 nM
- IC50 ([3]; class symbols): ≤ 50 nM
- IC50 (phosphorylated ERK): ≤ 50 nM

Structure (SMILES): C#Cc1c(F)ccc2cc(O)cc(-c3ncc4c(N5CC6CCC(C5)N6)nc(OCC5(CN6CCN(CCCC7CCN(C(=O)c8ccc(OC)c(N9CCC(=O)NC9=O)c8)CC7)CC6)CC5)nc4c3F)c12 [Example 8, 1-(5-(4-(3-(4-((1-(((4-(3,8-diazabicyclo[3.2.1]octan-3-yl)-7-(8-ethynyl-7-fluoro-3-hydroxynaphthalen-1-yl)-8-fluoropyrido[4,3-d]pyrimidin-2-yl)oxy)methyl)cyclopropyl)methyl)piperazin-1-yl)propyl)piperidine-1-carbonyl)-2-methoxyphenyl)dihydropyrimidine-2,4(1H,3H)-dione]
- IC50 ([1]; class symbols): ≤ 50 nM
- IC50 ([2]; class symbols): 50 to 100 nM
- IC50 ([3]; class symbols): ≤ 50 nM
- IC50 (phosphorylated ERK): ≤ 50 nM

Structure (SMILES): C#Cc1c(F)ccc2cc(O)cc(-c3ncc4c(N5CC6CCC(C5)N6)nc(OCC5(CN6CCC(CCOCC7CCN(C(=O)c8ccc(Cl)c(N9CCC(=O)NC9=O)c8)CC7)CC6)CC5)nc4c3F)c12 [Example 10]
- IC50 ([1]; class symbols): ≤ 50 nM
- IC50 ([2]; class symbols): 100 to 500 nM
- IC50 ([3]; class symbols): ≤ 50 nM
- IC50 (phosphorylated ERK): ≤ 50 nM

Structure (SMILES): C#Cc1c(F)ccc2cc(O)cc(-c3ncc4c(N5CC6CCC(C5)N6)nc(OCC5(CN6CCN(CC7CCC8(CC7)CCN(C(=O)c7ccc(OC)c(N9CCC(=O)NC9=O)c7)CC8)CC6)CCC5)nc4c3F)c12 [Example 25, 1-(5-(9-((4-((1-(((4-(3,8-diazabicyclo[3.2.1]octan-3-yl)-7-(8-ethynyl-7-fluoro-3-hydroxynaphthalen-1-yl)-8-fluoropyrido[4,3-d]pyrimidin-2-yl)oxy)methyl)cyclobutyl)methyl)piperazin-1-yl)methyl)-3-azaspiro[5.5]undecane-3-carbonyl)-2-methoxyphenyl)dihydropyrimidine-2,4(1H,3H)-dione]
- IC50 ([2]; class symbols): 100 to 500 nM
- IC50 ([3]; class symbols): ≤ 50 nM
- IC50 (phosphorylated ERK): 100 to 500 nM

Structure (SMILES): C#Cc1c(F)ccc2cc(O)cc(-c3ccc4c(N5CC6CCC(C5)N6)nc(OCC5(CN6CCN(CC7CCC8(CC7)CCN(C(=O)c7ccc(C)c(N9CCC(=O)NC9=O)c7)CC8)CC6)CC5)nc4c3F)c12 [Example 42, 1-(5-(9-((4-((1-(((4-(3,8-diazabicyclo[3.2.1]octan-3-yl)-7-(8-ethynyl-7-fluoro-3-hydroxynaphthalen-1-yl)-8-fluoroquinazolin-2-yl)oxy)methyl)cyclopropyl)methyl)piperazin-1-yl)methyl)-3-azaspiro[5.5]undecane-3-carbonyl)-2-methylphenyl)dihydropyrimidine-2,4(1H,3H)-dione]
- IC50 ([1]; class symbols): ≤ 50 nM
- IC50 ([2]; class symbols): ≤ 50 nM
- IC50 ([3]; class symbols): ≤ 50 nM

Structure (SMILES): C#Cc1cccc2cc(O)cc(-c3ncc4c(N5CC6CCC(C5)N6)nc(OCC5(CN6CCN(CC7CCC8(CC7)CCN(C(=O)c7ccc(Cl)c(N9CCC(=O)NC9=O)c7)CC8)CC6)CC5)nc4c3F)c12 [Example 57, 1-(5-(9-((4-((1-(((4-(3,8-diazabicyclo[3.2.1]octan-3-yl)-7-(8-ethynyl-3-hydroxynaphthalen-1-yl)-8-fluoropyrido[4,3-d]pyrimidin-2-yl)oxy)methyl)cyclopropyl)methyl)piperazin-1-yl)methyl)-3-azaspiro [5.5]undecane-3-carbonyl)-2-chlorophenyl)dihydropyrimidine-2,4(1H,3H)-dione]
- IC50 ([1]; class symbols): ≤ 50 nM
- IC50 ([2]; class symbols): ≤ 50 nM
- IC50 ([3]; class symbols): ≤ 50 nM

Structure (SMILES): C#Cc1c(F)ccc2cc(O)cc(-c3ncc4c(N5CC6CCC(C5)N6)nc(OCC(C)CN5CCN(CC6CCC7(CC6)CCN(C(=O)c6ccc(OC)c(N8CCC(=O)NC8=O)c6)CC7)CC5)nc4c3F)c12 (stereo not shown) [Example 84, 1-(5-(9-((4-(3-((4-(3,8-diazabicyclo[3.2.1]octan-3-yl)-7-(8-ethynyl-7-fluoro-3-hydroxynaphthalen-1-yl)-8-fluoropyrido[4,3-d]pyrimidin-2-yl)oxy)-2-methylpropyl)piperazin-1-yl)methyl)-3-azaspiro[5.5]undecane-3-carbonyl)-2-methoxyphenyl)dihydropyrimidine-2,4(1H,3H)-dione]
- IC50 ([1]; numeric values): 1.05 nM
- IC50 ([2]; numeric values): 6.5 nM
- IC50 ([3]; numeric values): 2.47 nM
